Data from paper PMC9218685, “Legume Plant Peptides as Sources of Novel Antimicrobial Molecules Against Human Pathogens” (Frontiers in Molecular Biosciences, 2022).
Converted amounts (≈) assume the structure as drawn. Ends that are not written are not given here. Peptide text beside a SMILES is read from it.

Key:
Format in all cases: cell-based
[1] = system: E. coli, S. enteritidis, P. aeruginosa, L. monocytogenes, S. aureus, E. faecalis, K. pneumoniae and A. baumannii; assay: Antimicrobial activity assay, spectrum over the eight tested pathogenic bacteria; conditions: 3 h treatment of ~10^7 log phase bacteria, peptides 25 to 0.8 µM; active = MBC ≤25 µM
Source text: (§1) The following pathogenic bacterial strains were used: The Gram-positive Enterococcus faecalis (ATCC 29212), Staphylococcus aureus (HNCMO112011), Listeria monocytogenes (ATCC 19111) and the Gram-negative Pseudomonas aeruginosa (ATCC 27853), Escherichia coli (ATCC 8739), Salmonella enterica (ATCC 13076), Klebsiella pneumoniae (NCTC 13440), Acinetobacter baumannii (ATCC 17978) obtained from the ATCC (United States) and NCTC (National Collection of Type Cultures–England). For the antifungal experiment the Candida albicans W01 strain ([Ördögh et al., 2014]) was used. Antimicrobial activities of peptides against ∼10^7 log phase bacteria were tested in Potassium-Phosphate Buffer (PPB, pH 7.4) as described by [Jenei et al. (2020)] while anti-Candida assays were done according to [Szerencsés et al. (2021)]. The two-fold dilution series of peptides ranged from 25 μM to 0.125 μM, while that of the antibiotics ampicillin (Merck) and miconazole (Duchefa Biochemie) from […] to 0.1 μM. The lowest concentration of the antimicrobial agents, which completely eliminated viable bacteria or C. albicans were considered as the minimal bactericidal concentration (MBC) and minimal fungicidal concentration (MFC).
We investigated the antimicrobial activity of 78 NCR peptides from M. truncatula and 12 NCRs from other IRLC legumes as well as their shorter derivatives against E. coli, S. enteritidis, P. aeruginosa, L. monocytogenes, S. aureus, E. faecalis, K. pneumoniae and A. baumannii (Supplementary Table S1). In the selection of the M. truncatula peptides, we considered their symbiotic expression levels but also their physicochemical properties. The antimicrobial activity of NCRs has so far been attributed to cationic peptides, with the exception of one anionic peptide. To investigate whether other anionic NCRs are antimicrobial, in addition to the cationic peptides, neutral and anionic NCRs were also included covering a broad range of peptides with different net charges (NC: from 7.8 to −10.2) and isoelectric points (pI: from 10.69 to 2.95). 50 peptides had positive net charge and pI > 7.0, while 28 peptides had negative net charge and pI < 7.0 (Supplementary Table S1A). Of the other legumes, only cationic NCR peptides were studied (Supplementary Table S1B).
(§2) The minimal bactericidal concentrations (MBCs) were determined after 3 h of treatment of ∼10^7 log phase bacteria with 2-fold serial dilution of peptides from 25 µM to 0.8 µM. Only 25 of the 50 cationic M. truncatula peptides had activity at ≤25 µM (Supplementary Table S1). […] Three peptides were only active against two bacterial strains; NCR649 against L. monocytogenes and A. baumannii, NCR281 against L. monocytogenes and P. aeruginosa and NCR350 against A. baumannii and P. aeruginosa. […] None of the anionic NCR peptides affected the survival of the tested bacterial strains.

[2] = system: Escherichia coli (ATCC 8739); conditions: ATCC 8739, 3 h
Source text: as §1, §2

[3] = system: Pseudomonas aeruginosa (ATCC 27853); conditions: for MBC Pseudomonas aeruginosa: ATCC 27853, 3 h
Source text: as §1, §2

[4] = system: Acinetobacter baumannii (ATCC 17978); assay: microbe, parasite or virus in culture
Source text: as §1, §2

[5] = 3 h, ~10^7 log phase bacteria, peptides ≤25 µM

With “AYYECSNDSACQATTKCVLPRVPRCIKYKCLCGNSNGSGNRWSTRPNRIQKGSTESNYF-OH (cysteines drawn unpaired) [NCR384]” the “Antibacterial spectrum over the eight tested bacterial strains” value [1] was “able to kill all tested bacteria except E. faecalis and K. pneumoniae”.

“KCYQDSDCPKDMCSFLFKPKCIFTRYFPIYLGGICGCDRKTCP-OH (cysteines drawn unpaired) [NCR645]” was tested, and the “Antibacterial spectrum over the eight tested bacterial strains” value [1] was “kill all bacteria except E. faecalis”.

With `CC[C@H](C)[C@H](NC(=O)[C@H](CCSC)NC(=O)[C@H](CCCNC(=N)N)NC(=O)[C@H](CCCNC(=N)N)NC(=O)CNC(=O)[C@@H]1CCCN1C(=O)[C@H](CC(C)C)NC(=O)[C@H](CS)NC(=O)[C@H](Cc1ccc(O)cc1)NC(=O)[C@H](CCCCN)NC(=O)[C@@H](NC(=O)[C@@H]1CCCN1C(=O)[C@H](CO)NC(=O)[C@H](CS)NC(=O)[C@H](CC(=O)O)NC(=O)[C@H](CO)NC(=O)[C@@H](NC(=O)[C@H](CCCCN)NC(=O)[C@@H](NC(=O)[C@H](CS)NC(=O)[C@H](CCC(=O)O)NC(=O)[C@H](CC(=O)O)NC(=O)[C@@H](N)CO)C(C)C)C(C)C)[C@@H](C)O)C(=O)N[C@@H](CS)C(=O)N[C@@H](CO)C(=O)N[C@@H](CCCCN)C(=O)NCC(=O)N[C@@H](CCCCN)C(=O)N[C@@H](CS)C(=O)N[C@@H](CCCCN)C(=O)N[C@@H](CS)C(=O)N[C@@H](CC(C)C)C(=O)N[C@@H](CCCNC(=N)N)C(=O)N[C@@H](CC(N)=O)C(=O)N[C@@H](CCSC)C(=O)N[C@@H](Cc1ccccc1)C(=O)N[C@H](C(=O)N1CCC[C@H]1C(=O)N[C@H](C(=O)N1CCC[C@H]1C(=O)O)[C@@H](C)CC)[C@@H](C)CC` [NCR135] (H-SDECVKVSDCSPTKYCLPGRRMICSKGKCKCLRNMFIPIP-OH; N-terminus assumed) the “Antibacterial spectrum over the eight tested bacterial strains” value [1] was “against three strains”.

With `CC[C@H](C)[C@H](NC(=O)[C@@H]1CCCN1C(=O)[C@H](CO)NC(=O)[C@@H](N)CO)C(=O)N[C@@H](CCCNC(=N)N)C(=O)N[C@H](C(=O)N[C@H](C(=O)N[C@@H](CC(=O)O)C(=O)N[C@H](C(=O)N[C@@H](CO)C(=O)N[C@@H](CCCNC(=N)N)C(=O)N1CCC[C@H]1C(=O)N[C@@H](CS)C(=O)N[C@H](C(=O)N[C@H](C(=O)N[C@@H](CC(=O)O)C(=O)N[C@@H](CCCCN)C(=O)N[C@@H](CC(=O)O)C(=O)N[C@@H](CS)C(=O)N[C@@H](CO)C(=O)N[C@@H](CCCCN)C(=O)N[C@H](C(=O)N[C@@H](CCC(=O)O)C(=O)N[C@@H](Cc1ccc(O)cc1)C(=O)NCC(=O)N[C@@H](Cc1ccc(O)cc1)C(=O)N[C@@H](CCCCN)C(=O)N[C@@H](CC(C)C)C(=O)N[C@@H](CCCNC(=N)N)C(=O)N[C@@H](CS)C(=O)N[C@@H](CCCNC(=N)N)C(=O)N[C@@H](CCCCN)C(=O)NCC(=O)N[C@@H](CCCNC(=N)N)C(=O)N[C@@H](CS)C(=O)N[C@H](C(=O)N[C@@H](Cc1c[nH]cn1)C(=O)N[C@H](C(=O)N1CCC[C@H]1C(=O)N[C@@H](CCCNC(=N)N)C(=O)O)[C@@H](C)CC)C(C)C)C(C)C)[C@@H](C)O)[C@@H](C)O)C(C)C)[C@@H](C)O)C(C)C` [NCR533] (H-SSPIRVTDVSRPCTTDKDCSKVEYGYKLRCRKGRCVHIPR-OH; N-terminus assumed) the “MBC Escherichia coli” value [2] was 25 µM (≈ 115 µg/mL).

In the case of `CC[C@H](C)[C@H](NC(=O)[C@H](CC(N)=O)NC(=O)[C@H](Cc1ccc(O)cc1)NC(=O)[C@H](CCC(N)=O)NC(=O)[C@H](CO)NC(=O)[C@@H](NC(=O)[C@H](CCCCN)NC(=O)[C@@H]1CCCN1C(=O)[C@H](CS)NC(=O)[C@H](CC(=O)O)NC(=O)[C@H](CCCCN)NC(=O)[C@H](CC(=O)O)NC(=O)[C@@H](NC(=O)[C@@H](NC(=O)[C@H](CS)NC(=O)[C@@H]1CCCN1C(=O)CNC(=O)[C@H](CO)NC(=O)[C@H](CC(N)=O)NC(=O)[C@@H](NC(=O)[C@H](Cc1ccc(O)cc1)NC(=O)[C@@H]1CCCN1C(=O)[C@@H](NC(=O)[C@H](CO)NC(=O)[C@H](CC(=O)O)NC(=O)[C@H](Cc1ccc(O)cc1)NC(=O)[C@@H](NC(=O)[C@@H](N)CO)C(C)C)[C@@H](C)CC)C(C)C)C(C)C)[C@@H](C)O)C(C)C)C(=O)N[C@@H](CCCNC(=N)N)C(=O)N[C@@H](CS)C(=O)N[C@@H](CCCNC(=N)N)C(=O)N[C@@H](CCCCN)C(=O)NCC(=O)N[C@@H](CCC(N)=O)C(=O)N[C@@H](CS)C(=O)N[C@@H](C)C(=O)N[C@@H](CCCNC(=N)N)C(=O)N[C@H](C(=O)N[C@@H](CCCNC(=N)N)C(=O)N[C@H](C(=O)O)C(C)C)[C@@H](C)CC` [NCR361] (H-SVYDSIPYVNSGPCVTDKDCPKVSQYNIRCRKGQCARIRV-OH; N-terminus assumed), the “MBC Pseudomonas aeruginosa” value [3] is reported as 25 µM (≈ 113 µg/mL).

In the case of `CC[C@H](C)[C@H](NC(=O)[C@H](Cc1ccc(O)cc1)NC(=O)[C@H](CC(N)=O)NC(=O)[C@H](CCCCN)NC(=O)[C@@H](NC(=O)[C@H](CO)NC(=O)[C@@H]1CCCN1C(=O)[C@H](CS)NC(=O)[C@H](CC(=O)O)NC(=O)[C@H](CCCCN)NC(=O)[C@H](CC(=O)O)NC(=O)[C@@H](NC(=O)[C@@H](NC(=O)[C@H](CS)NC(=O)[C@@H](NC(=O)[C@H](CCCNC(=N)N)NC(=O)[C@@H](NC(=O)[C@@H](NC(=O)[C@@H]1CCCN1C(=O)[C@H](CC(C)C)NC(=O)[C@H](Cc1ccc(O)cc1)NC(=O)[C@@H](N)[C@@H](C)O)[C@@H](C)O)[C@@H](C)O)[C@@H](C)CC)[C@@H](C)CC)[C@@H](C)O)C(C)C)C(=O)NCC(=O)N[C@@H](CCCNC(=N)N)C(=O)N[C@@H](CS)C(=O)N[C@@H](CCCNC(=N)N)C(=O)N[C@@H](CCCCN)C(=O)NCC(=O)N[C@@H](Cc1ccc(O)cc1)C(=O)N[C@@H](CS)C(=O)N[C@@H](CCC(N)=O)C(=O)N[C@@H](C)C(=O)N[C@@H](CO)C(=O)N[C@@H](CCCCN)C(=O)N[C@@H](CC(C)C)C(=O)N[C@@H](CCCNC(=N)N)C(=O)O` [NCR042] (H-TYLPTTRICITDKDCPSVKNYIGRCRKGYCQASKLR-OH; N-terminus assumed), the “MBC Pseudomonas aeruginosa” value [3] is reported as 25 µM (≈ 104 µg/mL).

“MKNGCKHTGHCPRKMCGAKTTKCRNNKCQCV [NCR192]” was tested, and the “Antibacterial spectrum over the eight tested bacterial strains” value [1] was “all active, with the exception of NCR192”.

In the case of `CC[C@H](C)[C@H](NC(=O)[C@H](CCCCN)NC(=O)[C@H](CC(=O)O)NC(=O)[C@@H]1CCCN1C(=O)[C@@H](N)Cc1ccccc1)C(=O)N[C@@H](Cc1ccccc1)C(=O)N[C@@H](Cc1ccccc1)C(=O)NCC(=O)N[C@@H](CC(=O)O)C(=O)N[C@@H](CS)C(=O)N[C@@H](CCC(N)=O)C(=O)N[C@H](C(=O)N[C@@H](CC(=O)O)C(=O)N[C@@H](CCCCN)C(=O)N[C@@H](CC(=O)O)C(=O)N[C@@H](CS)C(=O)N[C@@H](CCCCN)C(=O)N1CCC[C@H]1C(=O)N[C@@H](CCCCN)C(=O)N[C@@H](CCCNC(=N)N)C(=O)NCC(=O)N[C@H](C(=O)N[C@@H](CC(N)=O)C(=O)N[C@@H](Cc1ccccc1)C(=O)N[C@@H](CCCNC(=N)N)C(=O)N[C@@H](CS)C(=O)N[C@@H](CCCNC(=N)N)C(=O)N[C@@H](CCCCN)C(=O)NCC(=O)N[C@@H](CCCCN)C(=O)N[C@@H](CS)C(=O)N[C@@H](Cc1ccccc1)C(=O)N1CCC[C@H]1C(=O)N[C@H](C(=O)N[C@@H](CCCNC(=N)N)C(=O)O)C(C)C)C(C)C)[C@@H](C)O` [MsNCR463] (H-FPDKIFFGDCQTDKDCKPKRGVNFRCRKGKCFPVR-OH; N-terminus assumed), the “Effective concentration (MBC) against P. aeruginosa” value ([3]; 3 h, ~10^7 log phase bacteria) is reported as 25 µM and the “Antibacterial spectrum over the eight tested bacterial strains” value [1] is reported as “only effective against P. aeruginosa”.

With “VYDSKYFQIASPCVNDKDCPQFKNNNVRCRRGFCVNSGGATQKCLGCPSLK-OH (cysteines drawn unpaired) [NCR350]” the “Activity against A. baumannii” value [4, 5] was “active”, the “MBC Acinetobacter baumannii” value ([4]; ATCC 17978, 3 h) was 12.5 µM and the “Activity against P. aeruginosa” value [3, 5] was “active”. For the same molecule, the “MBC Pseudomonas aeruginosa” value [3] was 25 µM.
